Measurements as given in patent publication US20170334899A1, “AMINO-SUBSTITUTED ISOTHIAZOLES” (Bayer Pharma Aktiengesellschaft, priority 2014, published 2017).

What follows are molecules tested on human cervical tumor cell line HeLa (ATCC CCL-2) (assay: SAC-Formation - Paclitaxel-Induced Assay). Settings: Homo sapiens, HeLa, 24 h, HeLa cells, paclitaxel 0.05 μM, test range 0.005 μM-20 μM, read-out: IC50 [mol/l] SAC-Formation - Paclitaxel-Induced Assay.
Assay type: cell-based
Procedure, shortened: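 HeLa cells incubated overnight at 37° C, then given paclitaxel (0.05 μM final) plus test compound (0.005–20 μM, 0.5% DMSO) together for 24 h at 37° C. Fixed cells stained for phospho-histone H3 Ser10 (mitotic cells) and Hoechst 33342 (cell count); imaging-derived mitotic index fitted by four-parameter Hill equation.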

Compound | IC50
Cc1nsc(Nc2cnc3ccccc3n2)c1C(=O)Nc1ccc(OC2CCNCC2)nc1 [Example 19, 3-Methyl-N-[6-(piperidin-4-yloxy)pyridin-3-yl]-5-(quinoxalin-2-ylamino)-1,2-thiazole-4-carboxamide] | 2100 nM
COC(=O)CCc1cccc(NC(=O)c2c(C)nsc2Nc2ccc(C#N)cn2)c1 [Example 176, methyl 3-{3-[({5-[(5-cyanopyridin-2-yl)amino]-3-methyl-1,2-thiazol-4-yl}carbonyl)amino]phenyl}propanoate] | 240 nM
Cc1nsc(Nc2cnc3ccccc3n2)c1C(=O)Nc1cccc(NC(=O)OC(C)(C)C)c1 [Example 178, tert-butyl [3-({[3-methyl-5-(quinoxalin-2-ylamino)-1,2-thiazol-4-yl]carbonyl}amino)-phenyl]carbamate] | 260 nM
Cc1nsc(Nc2ccc(C#N)cn2)c1C(=O)Nc1cccc(NC(=O)OC(C)(C)C)c1 [Example 179, tert-butyl {3-[({5-[(5-cyanopyridin-2-yl)amino]-3-methyl-1,2-thiazol-4-yl}carbonyl)amino]phenyl}carbamate] | 2200 nM
Cc1nsc(Nc2ccc(C#N)cn2)c1C(=O)Nc1cccc(N)c1 [Example 180, N-(3-aminophenyl)-5-[(5-cyanopyridin-2-yl)amino]-3-methyl-1,2-thiazole-4-carboxamide] | 4300 nM
Cc1nsc(Nc2cnc3ccccc3n2)c1C(=O)Nc1ccc(C(=O)OC(C)(C)C)cc1 [Example 181, tert-butyl 4-({[3-methyl-5-(quinoxalin-2-ylamino)-1,2-thiazol-4-yl]carbonyl}amino)benzoate] | 100 nM
Cc1nsc(Nc2cc(C#N)ccn2)c1C(=O)Nc1cccc(NC(=O)C(C)(C)C)c1 [Example 183, 5-[(4-cyanopyridin-2-yl)amino]-N-{3-[(2,2-dimethylpropanoyl)amino]phenyl}-3-methyl-1,2-thiazole-4-carboxamide] | 4900 nM
Cc1nsc(Nc2cnccn2)c1C(=O)Nc1ccc(C(=O)OC(C)(C)C)cc1 [Example 184, tert-butyl 4-({[3-methyl-5-(pyrazin-2-ylamino)-1,2-thiazol-4-yl]carbonyl}amino)benzoate] | 140 nM
Cc1nsc(Nc2cnc3ccccc3n2)c1C(=O)Nc1cccc(NC(=O)C(C)(C)C)c1 [Example 186, N-{3-[(2,2-dimethylpropanoyl)amino]phenyl}-3-methyl-5-(quinoxalin-2-ylamino)-1,2-thiazole-4-carboxamide] | 3800 nM
Cc1nsc(Nc2cnc3ccccc3n2)c1C(=O)Nc1ccc(C(=O)O)cc1 [Example 187, 4-({[3-methyl-5-(quinoxalin-2-ylamino)-1,2-thiazol-4-yl]carbonyl}amino)benzoic acid] | 1400 nM
Cc1nsc(Nc2cnc3ccccc3n2)c1C(=O)Nc1ccccc1S(C)(=O)=O [Example 188, 3-methyl-N-[2-(methylsulfonyl)phenyl]-5-(quinoxalin-2-ylamino)-1,2-thiazole-4-carboxamide] | 10000 nM
Cc1nsc(Nc2cncc(C(F)(F)F)n2)c1C(=O)Nc1ccc(OC2CCCN(C(=O)OC(C)(C)C)C2)nc1 (stereo not drawn) [Example 189, tert-butyl 3-[(5-{[(3-methyl-5-{[6-(trifluoromethyl)pyrazin-2-yl]amino}-1,2-thiazol-4-yl)carbonyl]amino}pyridin-2-yl)oxy]piperidine-1-carboxylate] | 450 nM
Cc1nsc(Nc2cncc(C(F)(F)F)n2)c1C(=O)Nc1ccc(OCCCNC(=O)OC(C)(C)C)nc1 [Example 190, tert-butyl {3-[(5-{[(3-methyl-5-{[6-(trifluoromethyl)pyrazin-2-yl]amino}-1,2-thiazoL-4-yl)carbonyl]amino}pyridin-2-yl)oxy]propyl}carbamate] | 89 nM
Cc1nsc(Nc2cncc(C(F)(F)F)n2)c1C(=O)Nc1ccc(OCCNC(=O)OC(C)(C)C)nc1 [Example 191, tert-butyl {2-[(5-{[(3-methyl-5-{[6-(trifluoromethyl)pyrazin-2-yl]amino}-1,2-thiazol-4-yl)carbonyl]amino}pyridin-2-yl)oxy]ethyl}carbamate] | 37 nM
Cc1nsc(Nc2cncc(C(F)(F)F)n2)c1C(=O)Nc1ccc(C(=O)OC(C)(C)C)cc1 [Example 193, tert-butyl tert-butyl 4-{[(3-methyl-5-{[6-(trifluoromethyl)pyrazin-2-yl]amino}-1,2-thiazol-4-yl)carbonyl]amino}benzoate] | 510 nM
Cc1nsc(Nc2cncc(C(F)(F)F)n2)c1C(=O)Nc1cccc(S(C)(=O)=O)c1 [Example 194, 3-methyl-N-[3-(methylsulfonyl)phenyl]-5-{[6-(trifluoromethyl)pyrazin-2-yl]amino}-1,2-thiazole-4-carboxamide] | 290 nM
Cc1nsc(Nc2cnc(C(F)(F)F)cn2)c1C(=O)Nc1cccc(S(C)(=O)=O)c1 [Example 195, 3-methyl-N-[3-(methylsulfonyl)phenyl]-5-{[5-(trifluoromethyl)pyrazin-2-yl]amino}-1,2-thiazole-4-carboxamide] | 520 nM
Cc1nsc(Nc2cncc(C(F)(F)F)n2)c1C(=O)Nc1ccc(OCCN)nc1 [Example 196, N-[6-(2-aminoethoxy)pyridin-3-yl]-3-methyl-5-{[6-(trifluoromethyl)pyrazin-2-yl]amino}-1,2-thiazole-4-carboxamide] | 1300 nM
Cc1nsc(Nc2cnc(C(F)(F)F)cn2)c1C(=O)Nc1ccc(OCCN)nc1 [Example 197, N-[6-(2-aminoethoxy)pyridin-3-yl]-3-methyl-5-{[5-(trifluoromethyl)pyrazin-2-yl]amino}-1,2-thiazole-4-carboxamide] | 600 nM
Cc1nsc(Nc2cnc3ccccc3n2)c1C(=O)Nc1ccc(OCCC(=O)OC(C)(C)C)nc1 [Example 198, tert-butyl 3-{[5-({[3-methyl-5-(quinoxalin-2-ylamino)-1,2-thiazol-4-yl]carbonyl}amino)pyridin-2-yl]oxy}propanoate] | 740 nM
Cc1nsc(Nc2cnc3ccccc3n2)c1C(=O)Nc1ccc(C(N)=O)c(F)c1 [Example 201, N-(4-carbamoyl-3-fluorophenyl)-3-methyl-5-(quinoxalin-2-ylamino)-1,2-thiazole-4-carboxamide] | 220 nM

The next lines start with the values.

IC50 | Compound
13000 nM | Cc1nsc(Nc2cncc(C(F)(F)F)n2)c1C(=O)Nc1ccc(OC2CCNCC2)nc1 [Example 13, 3-Methyl-N-[6-(piperidin-4-yloxy)pyridin-3-yl]-5-{[6-(trifluoromethyl)pyrazin-2-yl]-amino}-1,2-thiazole-4-carboxamide]
630 nM | Cc1nsc(Nc2cncc(C(F)(F)F)n2)c1C(=O)Nc1ccc(OC2CCN(CCF)CC2)nc1 [Example 14, N-(6-{[1-(2-Fluoroethyl)piperidin-4-yl]oxy}pyridin-3-yl)-3-methyl-5-{[6-(trifluoro-methyl)pyrazin-2-yl]amino}-1,2-thiazole-4-carboxamide]
300 nM | CC(=O)N1CCC(Oc2ccc(NC(=O)c3c(C)nsc3Nc3cncc(C(F)(F)F)n3)cn2)CC1 [Example 17, N-{6-[(1-Acetylpiperidin-4-yl)oxy]pyridin-3-yl}-3-methyl-5-{[6-(trifluoromethyl)-pyrazin-2-yl]amino}-1,2-thiazole-4-carboxamide]
180 nM | Cc1nsc(Nc2cnc3ccccc3n2)c1C(=O)Nc1ccc(OC2CCN(CC(F)F)CC2)nc1 [Example 20, N-(6-{[1-(2,2-difluoroethyl)piperidin-4-yl]oxy}pyridin-3-yl)-3-methyl-5-(quinoxalin-2-ylamino)-1,2-thiazole-4-carboxamide]
550 nM | CCN(CC)CCNC(=O)c1cccc(NC(=O)c2c(C)nsc2Nc2cc(C#N)ccn2)c1 [Example 174, 5-[(4-cyanopyridin-2-yl)amino]-N-(3-{[2-(diethylamino)ethyl]carbamoyl}phenyl)-3-methyl-1,2-thiazole-4-carboxamide]
2600 nM | Cc1nsc(Nc2cc(C#N)ccn2)c1C(=O)Nc1cccc(C(=O)NC2CC2)c1 [Example 175, 5-[(4-cyanopyridin-2-yl)amino]-N-[3-(cyclopropylcarbamoyl)phenyl]-3-methyl-1,2-thiazole-4-carboxamide]
11000 nM | Cc1nsc(Nc2cc(C#N)ccn2)c1C(=O)Nc1ccc(NC(=O)OC(C)(C)C)cc1 [Example 177, tert-butyl {4-[({5-[(4-cyanopyridin-2-yl)amino]-3-methyl-1,2-thiazol-4-yl}carbonyl)amino]phenyl}carbamate]
19 nM | Cc1nsc(Nc2cc(C#N)ccn2)c1C(=O)Nc1ccc(C(=O)OC(C)(C)C)cc1 [Example 182, tert-butyl 4-[({5-[(4-cyanopyridin-2-yl)amino]-3-methyl-1,2-thiazol-4-yl}carbonyl)amino]benzoate]
4700 nM | Cc1nsc(Nc2cnc3ccccc3n2)c1C(=O)Nc1ccc(NC(=O)C(C)(C)C)cc1 [Example 185, N-{4-[(2,2-dimethylpropanoyl)amino]phenyl}-3-methyl-5-(quinoxalin-2-ylamino)-1,2-thiazole-4-carboxamide]
180 nM | Cc1nsc(Nc2cnc(C(F)(F)F)cn2)c1C(=O)Nc1ccc(OCCNC(=O)OC(C)(C)C)nc1 [Example 192, tert-butyl {2-[(5-{[(3-methyl-5-{[5-(trifluoromethyl)pyrazin-2-yl]amino}-1,2-thiazol-4-yl)carbonyl]amino}pyridin-2-yl)oxy]ethyl}carbamate]
110 nM | Cc1nsc(Nc2ccc(C#N)cn2)c1C(=O)Nc1ccc(OCCC(=O)OC(C)(C)C)nc1 [Example 199, tert-butyl 3-({5-[({5-[(5-cyanopyridin-2-yl)amino]-3-methyl-1,2-thiazol-4-yl}carbonyl)amino]pyridin-2-yl}oxy)propanoate]
1200 nM | Cc1nsc(Nc2cc(C#N)ccn2)c1C(=O)Nc1ccc(OCCC(=O)OC(C)(C)C)nc1 [Example 200, tert-butyl 3-({5-[({5-[(4-cyanopyridin-2-yl)amino]-3-methyl-1,2-thiazol-4-yl}carbonyl)amino]pyridin-2-yl}oxy)propanoate]
